# The supplement of paper PMC11061612
# Tests used:
# [1] = compound: CC(C)n1c(=O)n(C)c2cnc3cc(F)c(-c4ccc(OCCCN5CCCCC5)nc4)cc3c21 [AZD1390]; conditions: max 0.3 µM
# Procedure, shortened: (§1)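 Cancer cell lines were seeded in 1536-well plates in 7.5 μl DMEM/F12 or RPMI with 10% FBS, held 24 hours at 37°C and 5% CO2, then dosed for 72 hours (final DMSO typically 0.2%). Viability was read by CellTiter-Glo 2.0 luminescence and scaled between blank-well and DMSO-well means. The single-agent IC50 comes from dose responses fitted to a two-parameter logistic curve with a non-linear mixed effects model.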
# [2] = compound: CC(=O)c1c(C)c2cnc(Nc3ccc(N4CCNCC4)cn3)nc2n(C2CCCC2)c1=O [Palbociclib]; conditions: max 10 µM
# Procedure, shortened: as §1
# [3] = compound: Nc1ccn([C@@H]2O[C@H](CO)[C@@H](O)C2(F)F)c(=O)n1 [Gemcitabine]; conditions: max 0.3 µM
# Procedure, shortened: as §1
# [4] = compound: COc1cccc2c1C(=O)c1c(O)c3c(c(O)c1C2=O)C[C@@](O)(C(=O)CO)C[C@@H]3O[C@H]1C[C@H](N)[C@H](O)[C@H](C)O1 [Doxorubicin]; conditions: max 1 µM
# Procedure, shortened: as §1
# [5] = compound: CC1(C)CCC(CN2CCN(c3ccc(C(=O)NS(=O)(=O)c4ccc(NCC5CCOCC5)c([N+](=O)[O-])c4)c(Oc4cnc5[nH]ccc5c4)c3)CC2)=C(c2ccc(Cl)cc2)C1 [Venetoclax]; conditions: max 1 µM
# Procedure, shortened: as §1
# [6] = compound: COc1nnc2ccc(N3CCC(c4ccc(OCCN5CCN(C)C(=O)[C@H]5C)cc4)CC3)nn12 [AZD5153]; conditions: max 1 µM
# Procedure, shortened: as §1
# [7] = compound: Cc1cc2ncnn2cc1Nc1ncc2c(n1)n(C1CCOCC1)c(=O)n2C [AZD7648]; conditions: max 10 µM
# Procedure, shortened: as §1
# [8] = compound: CN(CC[C@H](CSC1=CC=CC=C1)NC2=C(C=C(C=C2)S(=O)(=O)NC(=O)C3=CC=C(C=C3)N4CCC(CC4)[C@H](C5=CC=CC=C5C6=CC=C(C=C6)Cl)O)S(=O)(=O)C(F)(F)F)CCO [AZD4320]; conditions: max 1 µM
# Procedure, shortened: as §1
# [9] = compound: C[C@@H](c1ccc2nccn2c1)n1nnc2ncc(-c3cnn(C)c3)nc21 [Savolitinib]; conditions: max 1 µM
# Procedure, shortened: as §1
# [10] = compound: C=CCn1c(=O)c2cnc(Nc3ccc(N4CCN(C)CC4)cc3)nc2n1-c1cccc(C(C)(C)O)n1 [AZD1775]; conditions: max 3 µM
# Procedure, shortened: as §1
# [11] = compound: N#Cc1cnc(Nc2cc(NC[C@H]3CNCCO3)c(C(F)(F)F)cn2)cn1 [SRA737]; conditions: max 10 µM
# Procedure, shortened: as §1
# [12] = compound: COc1cc2ncnc(Nc3ccc(F)c(Cl)c3)c2cc1OCCCN1CCOCC1 [Gefitinib]; conditions: max 10 µM
# Procedure, shortened: as §1
# [13] = compound: NC1(c2ccc(-c3nc4ccn5c(=O)[nH]nc5c4cc3-c3ccccc3)cc2)CCC1 [MK-2206]; conditions: max 10 µM
# Procedure, shortened: as §1
# [14] = compound: C[C@@H](Oc1cc(-c2cnn(C3CCNCC3)c2)cnc1N)c1c(Cl)ccc(F)c1Cl [Crizotinib]; conditions: max 10 µM
# Procedure, shortened: as §1
# [15] = compound: C1CN(CCC1(C(=O)N[C@@H](CCO)C2=CC=C(C=C2)Cl)N)C3=NC=NC4=C3C=CN4 [AZD5363]; conditions: max 10 µM
# Procedure, shortened: as §1
# [16] = compound: COc1cccc(OCCCN)c1-c1cc(Nc2cnc(C#N)cn2)n[nH]1 [Prexasertib]; conditions: max 1 µM
# Procedure, shortened: as §1
# [17] = compound: Cc1nc(-c2cn3c(n2)-c2ccc(-c4cnn(C(C)(C)C(N)=O)c4)cc2OCC3)n(C(C)C)n1 [Taselisib]; conditions: max 10 µM
# Procedure, shortened: as §1
# [18] = compound: CC1=C(C(=CC=C1)Cl)NC(=O)C2=CN=C(S2)NC3=CC(=NC(=N3)C)N4CCN(CC4)CCO [Dasatinib]; conditions: max 2 µM
# Procedure, shortened: as §1
# [19] = compound: CC(=O)Nc1cccc(-n2c(=O)n(C3CC3)c(=O)c3c(Nc4ccc(I)cc4F)n(C)c(=O)c(C)c32)c1 [Trametinib]; conditions: max 1 µM
# Procedure, shortened: as §1
# [20] = compound: Cn1cnc2c(F)c(Nc3ccc(Br)cc3Cl)c(C(=O)NOCCO)cc21 [Selumetinib]; conditions: max 10 µM
# Procedure, shortened: as §1
# [21] = compound: COc1cc([C@@H]2c3cc4c(cc3[C@@H](O[C@@H]3O[C@@H]5CO[C@@H](C)O[C@H]5[C@H](O)[C@H]3O)[C@H]3COC(=O)[C@H]23)OCO4)cc(OC)c1O [Etoposide]; conditions: max 10 µM
# Procedure, shortened: as §1
# [22] = compound: O=C(Nc1ccc2[nH]nc(-c3ccncc3)c2c1)[C@@H]1CCN(CC(=O)N2CCN(c3ccc(-c4ncccn4)cc3)CC2)C1; conditions: max 5 µM
# Procedure, shortened: as §1
# [23] = compound: CN(C)CCCOc1ccc(-c2ccc3ncc4c(c3c2)n(C2CCOCC2)c(=O)n4C)cn1 [AZD0156]; conditions: max 3 µM
# Procedure, shortened: as §1
# [24] = compound: C[C@@H]1COCCN1C2=NC(=NC(=C2)C3(CC3)[S@](=N)(=O)C)C4=C5C=CNC5=NC=C4 [AZD6738]; conditions: max 10 µM
# Procedure, shortened: as §1
# [25] = compound: COc1cc(Nc2ncc3c(n2)-c2ccc(Cl)cc2C(c2c(F)cccc2OC)=NC3)ccc1C(=O)O [Alisertib]; conditions: max 10 µM
# Procedure, shortened: as §1
# [26] = compound: CC(=O)O[C@H]1C(=O)[C@@]2(C)[C@H]([C@H](OC(=O)c3ccccc3)[C@]3(O)C[C@H](OC(=O)[C@H](O)[C@@H](NC(=O)c4ccccc4)c4ccccc4)C(C)=C1C3(C)C)[C@]1(OC(C)=O)CO[C@@H]1C[C@@H]2O [Paclitaxel]; conditions: max 3 µM
# Procedure, shortened: as §1
# [27] = compound: CC1=CN2[C@@H](C1)C=NC3=CC(=C(C=C3C2=O)OC)OCCCCCOC4=C(C=C5C(=C4)N=C[C@@H]6CC(=CN6C5=O)C)OC [SG3199]; conditions: max 0.001 µM
# Procedure, shortened: as §1
# [28] = compound: Cc1c2c(nn1C)CSCc1cc(n(C)n1)CSc1cc(c3ccccc3c1)OCCCc1c(C(=O)O)n(C)c3c-2c(Cl)ccc13 [AZD5991]; conditions: max 1 µM
# Procedure, shortened: as §1
# [29] = compound: O=C(c1cc(Cc2n[nH]c(=O)c3ccccc23)ccc1F)N1CCN(C(=O)C2CC2)CC1 [Olaparib]; conditions: max 10 µM
# Procedure, shortened: as §1
# [30] = compound: O=c1[nH]cc(F)c(=O)[nH]1 [5-Fluorouracil]; conditions: max 20 µM
# Procedure, shortened: as §1
# [31] = compound: CS(=O)(=O)CCNCc1ccc(-c2ccc3ncnc(Nc4ccc(OCc5cccc(F)c5)c(Cl)c4)c3c2)o1 [Lapatinib]; conditions: max 10 µM
# Procedure, shortened: as §1
# [32] = compound: C1CC(C1)(C(=O)[O-])C(=O)[O-].N.N.[Pt+2] [Carboplatin]; conditions: max 10 µM
# Procedure, shortened: as §1
# [33] = compound: CCN(CCO)CCCOc1ccc2c(Nc3cc(CC(=O)Nc4cccc(F)c4)[nH]n3)ncnc2c1 [AZD2811]; conditions: max 1 µM
# Procedure, shortened: as §1
# [34] = compound: CCc1c2c(nc3ccc(O)cc13)-c1cc3c(c(=O)n1C2)COC(=O)[C@]3(O)CC [SN-38]; conditions: max 0.3 µM
# Procedure, shortened: as §1
# [35] = compound: C[C@@H](Nc1cc(F)cc(F)c1)c1cc(C(=O)N(C)C)cc2c(=O)cc(N3CCOCC3)oc12 [AZD8186]; conditions: max 10 µM
# Procedure, shortened: as §1
Cell Line,"IC50, cell viability 72 h [1]","IC50, cell viability 72 h [2]","IC50, cell viability 72 h [3]","IC50, cell viability 72 h [4]","IC50, cell viability 72 h [5]","IC50, cell viability 72 h [6]","IC50, cell viability 72 h [7]","IC50, cell viability 72 h [8]","IC50, cell viability 72 h [9]","IC50, cell viability 72 h [10]","IC50, cell viability 72 h [11]","IC50, cell viability 72 h [12]","IC50, cell viability 72 h [13]","IC50, cell viability 72 h [14]","IC50, cell viability 72 h [15]","IC50, cell viability 72 h [16]","IC50, cell viability 72 h [17]","IC50, cell viability 72 h [18]","IC50, cell viability 72 h [19]","IC50, cell viability 72 h [20]","IC50, cell viability 72 h [21]","IC50, cell viability 72 h [22]","IC50, cell viability 72 h [23]","IC50, cell viability 72 h [24]","IC50, cell viability 72 h [25]","IC50, cell viability 72 h [26]","IC50, cell viability 72 h [27]","IC50, cell viability 72 h [28]","IC50, cell viability 72 h [29]","IC50, cell viability 72 h [30]","IC50, cell viability 72 h [31]","IC50, cell viability 72 h [32]","IC50, cell viability 72 h [33]","IC50, cell viability 72 h [34]","IC50, cell viability 72 h [35]"
DOK (Oral Cavity Carcinoma),> 0.3 µM,> 10 µM,> 0.3 µM,> 1 µM,> 1 µM,0.652 µM,> 10 µM,> 1 µM,> 1 µM,1.26 µM,> 10 µM,> 10 µM,> 10 µM,> 10 µM,9.61 µM,> 1 µM,0.253 µM,0.165 µM,0.328 µM,3.66 µM,> 10 µM,0.633 µM,> 3 µM,> 10 µM,4.51 µM,0.00513 µM,> 0.001 µM,> 1 µM,> 10 µM,> 20 µM,5.76 µM,> 10 µM,> 1 µM,0.169 µM,> 10 µM
EW-22 (Ewing's Sarcoma),> 0.3 µM,> 10 µM,0.00606 µM,0.0648 µM,0.72 µM,0.982 µM,> 10 µM,0.178 µM,> 1 µM,0.694 µM,3.01 µM,> 10 µM,> 10 µM,3.93 µM,> 10 µM,0.00762 µM,0.936 µM,> 2 µM,> 1 µM,> 10 µM,1.15 µM,> 5 µM,> 3 µM,1.4 µM,0.563 µM,0.0192 µM,> 0.001 µM,> 1 µM,1.73 µM,> 20 µM,> 10 µM,> 10 µM,0.0788 µM,0.00131 µM,> 10 µM
FU-OV-1 (Ovarian Carcinoma),> 0.3 µM,> 10 µM,> 0.3 µM,,> 1 µM,0.511 µM,> 10 µM,> 1 µM,> 1 µM,> 3 µM,> 10 µM,> 10 µM,> 10 µM,> 10 µM,> 10 µM,0.694 µM,1.09 µM,1.48 µM,,> 10 µM,> 10 µM,3.8 µM,> 3 µM,> 10 µM,> 10 µM,> 3 µM,,> 1 µM,> 10 µM,> 20 µM,> 10 µM,> 10 µM,> 1 µM,> 0.3 µM,> 10 µM
H4 (Low Grade Glioma),> 0.3 µM,6.45 µM,0.0223 µM,0.157 µM,> 1 µM,0.164 µM,> 10 µM,> 1 µM,> 1 µM,0.108 µM,> 10 µM,> 10 µM,> 10 µM,3 µM,6.25 µM,0.0604 µM,3.68 µM,> 2 µM,> 1 µM,> 10 µM,2 µM,> 5 µM,> 3 µM,3.6 µM,0.312 µM,0.0324 µM,> 0.001 µM,> 1 µM,> 10 µM,9.69 µM,> 10 µM,> 10 µM,> 1 µM,0.0233 µM,3.8 µM
HCC38 (Breast Carcinoma),> 0.3 µM,> 10 µM,0.172 µM,> 1 µM,> 1 µM,> 1 µM,> 10 µM,0.503 µM,> 1 µM,0.43 µM,> 10 µM,> 10 µM,> 10 µM,> 10 µM,> 10 µM,0.0804 µM,> 10 µM,> 2 µM,> 1 µM,> 10 µM,> 10 µM,> 5 µM,> 3 µM,> 10 µM,> 10 µM,0.296 µM,> 0.001 µM,> 1 µM,> 10 µM,> 20 µM,> 10 µM,> 10 µM,> 1 µM,0.0695 µM,> 10 µM
TC-YIK (Other Solid Carcinomas),> 0.3 µM,> 10 µM,0.0313 µM,,> 1 µM,0.0202 µM,> 10 µM,0.057 µM,> 1 µM,0.576 µM,4.37 µM,> 10 µM,> 10 µM,2.5 µM,> 10 µM,,> 10 µM,> 2 µM,0.156 µM,7.13 µM,1.64 µM,2.73 µM,> 3 µM,1.93 µM,,0.00402 µM,,> 1 µM,> 10 µM,> 20 µM,> 10 µM,> 10 µM,0.0219 µM,0.00186 µM,> 10 µM
